Tested on: Kunming mice
Assay: Analgesic activity by acetic acid-induced writhing method
Type: in vivo
Details: Mus musculus, sc, subcutaneous, 15 min before i.p. 0.7% acetic acid, writhing inhibition vs blank group, read-out: Analgesia rate ± SEM (%); for inhibition in vivo at 10 mg/kg: Dosing concentration 10 mg/kg; for inhibition in vivo at 3.5 mg/kg: Dosing concentration 3.5 mg/kg
Procedure: The experimental animals were Kunming mice (male:female=1:1), weighed 22±2 g, which were provided by Chengdu dossy experimental animals Co., ltd., China. The mice were kept in the animal room of the School of Life Science and Engineering, Southwest Jiaotong University, where the animal room was set at a temperature of 23±2° C., a humidity of 55±5% and a photoperiod of 16:8 h (L:D). Before the experiment, the mice were freely fed for 2-3 days with water and feed to adapt to the new environment. Then, the mice were treated by water fasting for 12 h. 10 animals were allocated to each group to ensure that there are at least 6 sets of valid data in each group. The animal experiments were carried out in strict accordance with the national regulations on the management of experimental animals.
The compounds prepared in the examples provided herein and the positive control lappaconitine were all dissolved with 0.1 mol/L HCl according to the amount of the substance ratio of 1:1, and then diluted with physiological saline to a concentration to be determined. The samples to be tested were the compounds prepared the examples provided herein; the positive control was lappaconitine; and the blank control was physiological saline containing 0.1 mol/L HCl.
The animals in the control groups were subjected to the same treatment as those in the experimental group except that the samples to be test were replaced with physiological saline.
10 mice were randomly selected, male:female=1:1, were placed in independent cages. Each mouse was injected subcutaneously with the sample solution mentioned above at a dose of 0.1 mL/10 g body weight. After 15 min, a 0.7% acetic acid solution was intraperitoneally injected. The number of writhing reactions in each mouse within 15 minutes was recorded. The group that the mice were injected with physiological saline subcutaneously was the blank group; the group that the mice were injected with the sample to be tested was the experimental group; and the group that the mice were injected with lappaconitine was the positive group. The analgesic activity was represented by a percentage of the reduced number of writhing compared to the blank group (writhing inhibition rate), which were specifically as follows: writhing inhibition rate (analgesic activity)=(average number of writhing times in the blank group-average number of writhing times in the experimental group)/average number of writhing times in the blank group×100%.

SMILES: CCN1C[C@]2(OC(=O)c3ccccc3NS(=O)(=O)c3ccc(Br)cc3)CC[C@H](OC)C34C2CC([C@@H]13)[C@@]1(O)C[C@H](OC)[C@H]2CC4[C@]1(O)[C@H]2OC (some centres unmarked) [Compound 26]
- inhibition in vivo at 10 mg/kg: 11.4 ± 7.58%

SMILES: CCN1C[C@]2(OC(=O)c3ccccc3NC(=O)c3ccc(Cl)cc3)CC[C@H](OC)C3C2C[C@@H]([C@@H]1C)[C@@]1(O)CC(OC)[C@H]2CC3[C@]1(O)[C@H]2OC (some centres unmarked) [Compound 40]
- inhibition in vivo at 10 mg/kg: 31.6 ± 12.6%

SMILES: CCN1C[C@]2(OC(=O)c3ccccc3NS(=O)(=O)c3cccc4c(N(C)C)cccc34)CC[C@H](OC)[C@@]34C2CC([C@@H]13)[C@@]1(O)C[C@H](OC)[C@H]2CC4[C@]1(O)[C@H]2OC (some centres unmarked) [Compound 10]
- inhibition in vivo at 10 mg/kg: 42.5 ± 2.56%

SMILES: C/C=C/S(=O)(=O)Nc1ccccc1C(=O)O[C@@]12CC[C@H](OC)[C@@]34C1CC([C@H]3N(CC)C2)[C@@]1(O)C[C@H](OC)[C@H]2CC4[C@]1(O)[C@H]2OC (some centres unmarked) [Compound 16]
- inhibition in vivo at 10 mg/kg: 24.4 ± 8.46%

SMILES: CCN1C[C@]2(OC(=O)c3ccccc3NC(=O)c3ccc(I)cc3)CC[C@H](OC)C3C2C[C@@H]([C@@H]1C)[C@@]1(O)CC(OC)[C@H]2CC3[C@]1(O)[C@H]2OC (some centres unmarked) [Compound 43]
- inhibition in vivo at 10 mg/kg: 31.1 ± 8.56%

SMILES: CCN1C[C@]2(OC(=O)c3ccccc3NS(=O)(=O)Cc3ccccc3)CC[C@H](OC)[C@@]34C2CC([C@@H]13)[C@@]1(O)C[C@H](OC)[C@H]2CC4[C@]1(O)[C@H]2OC (some centres unmarked) [Compound 9]
- inhibition in vivo at 10 mg/kg: 43.8 ± 4.5%

SMILES: CCN1C[C@]2(OC(=O)c3ccccc3NS(=O)(=O)c3cccc4cccnc34)CC[C@H](OC)[C@@]34C2CC([C@@H]13)[C@@]1(O)C[C@H](OC)[C@H]2CC4[C@]1(O)[C@H]2OC (some centres unmarked) [Compound 12]
- inhibition in vivo at 10 mg/kg: 41.9 ± 3.8%

SMILES: CCN1C[C@]2(OC(=O)c3ccccc3NC(=O)C3CCCO3)CC[C@H](OC)C3C2C[C@@H]([C@@H]1C)[C@@]1(O)CC(OC)[C@H]2CC3[C@]1(O)[C@H]2OC (some centres unmarked) [Compound 48]
- inhibition in vivo at 10 mg/kg: 21.8 ± 12.6%

SMILES: CCCCc1ccc(C(=O)Nc2ccccc2C(=O)O[C@@]23CC[C@H](OC)C4C2C[C@@H]([C@H](C)N(CC)C3)[C@@]2(O)CC(OC)[C@H]3CC4[C@]2(O)[C@H]3OC)cc1 (some centres unmarked) [Compound 44]
- inhibition in vivo at 10 mg/kg: 28.2 ± 7.88%

SMILES: CCOC(=O)Nc1ccccc1C(=O)O[C@@]12CC[C@H](OC)C34C1CC([C@H]3N(CC)C2)[C@@]1(O)C[C@H](OC)[C@H]2CC4[C@]1(O)[C@H]2OC (some centres unmarked) [Compound 21]
- inhibition in vivo at 10 mg/kg: 16.4 ± 11.5%

SMILES: CCN1C[C@]2(OC(=O)c3ccccc3NS(=O)(=O)c3cccc(F)c3)CC[C@H](OC)[C@@]34C2CC([C@@H]13)[C@@]1(O)C[C@H](OC)[C@H]2CC4[C@]1(O)[C@H]2OC (some centres unmarked) [Compound 7]
- inhibition in vivo at 10 mg/kg: 50.2 ± 6.85%

SMILES: CCN1C[C@]2(OC(=O)c3ccccc3NS(=O)(=O)c3ccc(F)cc3)CC[C@H](OC)C34C2CC([C@@H]13)[C@@]1(O)C[C@H](OC)[C@H]2CC4[C@]1(O)[C@H]2OC (some centres unmarked) [Compound 23]
- inhibition in vivo at 3.5 mg/kg: 14.7 ± 13.2%

SMILES: CCN1C[C@]2(OC(=O)c3ccccc3NS(=O)(=O)c3ccc(C(F)(F)F)cc3)CC[C@H](OC)[C@@]34C2CC([C@@H]13)[C@@]1(O)C[C@H](OC)[C@H]2CC4[C@]1(O)[C@H]2OC (some centres unmarked) [Compound 19]
- inhibition in vivo at 10 mg/kg: 19.4 ± 5%

SMILES: CCN1C[C@]2(OC(=O)c3ccccc3NS(=O)(=O)c3ccc(OC)cc3)CC[C@H](OC)[C@@]34C2CC([C@@H]13)[C@@]1(O)C[C@H](OC)[C@H]2CC4[C@]1(O)[C@H]2OC (some centres unmarked) [Compound 20]
- inhibition in vivo at 3.5 mg/kg: 16.8 ± 6.09%

SMILES: CCN1C[C@]2(OC(=O)c3ccccc3NS(=O)(=O)Oc3ccccc3)CC[C@H](OC)C34C2CC([C@@H]13)[C@@]1(O)C[C@H](OC)[C@H]2CC4[C@]1(O)[C@H]2OC (some centres unmarked) [Compound 28]
- inhibition in vivo at 10 mg/kg: 1.03 ± 10.3%

SMILES: CCCCCCC(=O)Nc1ccccc1C(=O)O[C@@]12CC[C@H](OC)C34C1CC([C@H]3N(CC)C2)[C@@]1(O)C[C@H](OC)[C@H]2CC4[C@]1(O)[C@H]2OC (some centres unmarked) [Compound 34]
- inhibition in vivo at 10 mg/kg: 54.2 ± 6.15%

SMILES: CCN1C[C@]2(OC(=O)c3ccccc3NC(=O)c3ccc(C(C)C)cc3)CC[C@H](OC)C3C2C[C@@H]([C@@H]1C)[C@@]1(O)CC(OC)[C@H]2CC3[C@]1(O)[C@H]2OC (some centres unmarked) [Compound 49]
- inhibition in vivo at 10 mg/kg: 21 ± 6.58%

Reference: patent US11840517B2, “Lappaconitine derivative with analgesic activity, and preparation and application thereof” (priority 2021, dated 2023)
